Where a chain is given by its changes, count along the chain named.
Key:
GC in H4 cells = biological target: T1, GC in H4 cells (Homo sapiens, UniProt P04062); assay: whole cell GC activity of H4 cell lysate over the 74 hrs time course; type: cell-based; settings: H4 cells incubated with TAT-peptide
T1 construct: Lysosomal GC activity of living H4 cells measured in vivo after incubation with uptake-optimized TAT-peptides; endogenous in cells; host or cells: H4 human neuroglioma cells (for the 74 h course: stably overexpressing α-synuclein)
T1 sequence (P04062 40-536): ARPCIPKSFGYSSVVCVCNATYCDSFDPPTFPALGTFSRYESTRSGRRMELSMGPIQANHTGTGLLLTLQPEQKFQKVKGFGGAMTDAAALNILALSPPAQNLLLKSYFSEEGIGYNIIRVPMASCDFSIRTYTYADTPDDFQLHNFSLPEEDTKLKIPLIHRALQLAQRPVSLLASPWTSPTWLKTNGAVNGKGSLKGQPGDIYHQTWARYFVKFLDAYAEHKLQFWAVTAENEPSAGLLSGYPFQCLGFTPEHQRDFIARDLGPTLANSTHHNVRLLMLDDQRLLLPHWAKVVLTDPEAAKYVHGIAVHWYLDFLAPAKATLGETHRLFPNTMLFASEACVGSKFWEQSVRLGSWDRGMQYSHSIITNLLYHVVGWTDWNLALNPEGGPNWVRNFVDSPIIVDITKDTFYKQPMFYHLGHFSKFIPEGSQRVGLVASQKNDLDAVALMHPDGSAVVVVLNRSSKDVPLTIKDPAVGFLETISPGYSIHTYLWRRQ
Method: FIG. 6: Characterization of a helical LIMP-2-derived peptide. […] B) In vitro peptide pulldown assay: helix 5 peptides were incubated with recombinant LAMAN and bovine serum albumin (BSA). INPUT and BOUND fractions were loaded onto SDS-PAGE and proteins visualized by coomassie staining (CBB). C) Densitometry of LAMAN and BSA protein bound to peptide, normalized to protein fraction bound to beads only (buffer; n=2-3). D) and E) Activity assay of recombinant (D) GC and (E) LAMAN incubated with different excess molarities (1×-10×) of helix 5 peptide (n=β-5) and LIMP-2 ectodomain (n=4). GC activities were normalized and statistical analyses compared to 0 input of BSA/helix 5 peptide. F) Peptide-pulldown of GC constructs overexpressed in N2a cells with subsequent Western blot analysis (α-hGC) utilizing helix 5 and the 3×D control peptide as a negative binding control. G) Densitometry of GC protein bound to peptides; each construct is normalized to buffer only. H) Live-cell lysosomal GC activity of H4 cells after uptake of helix 5 and 3×D TAT peptides. GC activity was measures every 30 minutes up to 3.5 hours. Cells were treated with DMSO or the “lysosomal inhibitor” bafilomycinA1. […] Lysosomal activity is calculated by subtracting the AUC of DMSO with the AUC of bafilomycinA1 treated samples (n=4). […] GC activity was measured from 16-74 hours and is shown in mU/mg (n=3). […]

[1] = system: α-synuclein in H4 cells stably overexpressing α-synuclein; settings: doxycycline, 74 hrs post incubation, compared to 3×D control peptide
Method: For Western blotting 20-40 μg of protein was loaded on a 10% Tris-SDS (made in house) or 4-12% Bis-Tris/NuPAGE Novex gel system (Thermo Fisher Scientific), subjected to electrophoresis, and blotted on nitrocellulose or PVDF membranes [2 h at 4° C. and 0.85 ampere (A) constant]. Membranes were blocked in 5% (wt/vol) milk Tris-buffered saline (TBS-T, pH 7.4, 0.1% Tween-20), and primary antibodies were incubated overnight (for more details on antibody dilutions see Table 4). PVDF membranes for α-synuclein detection were postfixed in 0.4% paraformaldehyde (PFA) (Polysciences Inc.) for 20 min after blotting. Signals were normalized to the respective loading controls [actin, neuronal-specific enolase (NSE), or GAPDH] […] Primary antibodies were incubated overnight at 4° C. After three washing steps in TBS-T the membranes were incubated for 1 h with the respective secondary antibody at room temperature. After the membrane was washed again three times with TBS-T, the signal of the antibody was detected using a chemiluminescence detection system (LAS4000; GE Healthcare Life Sciences) or by scanning on an infrared imager (Odyssey; LI-COR Biosciences).
The α-synuclein turn-over rate in the presence of the LIMP-2-derived peptides was assessed in human neuroglioma cells (H4), stably overexpressing α-synuclein. […]

[2] = biological target: T2, recombinant N370S mutant GC (Homo sapiens, UniProt P04062, N409S); assay: peptide pulldown of recombinant N370S mutant GC; type: binding; settings: cell-free system
T2 sequence (P04062 40-536 N409S): T1 sequence (P04062 40-536) with N370S
Method: For the pulldown of recombinant protein utilizing LIMP-2-derived peptides, 2 nmol of protein (GC, LAMAN and BSA) was incubated overnight at 4° C. with the ten-fold molecular amount (20 nmol) of biotinylated LIMP-2-derived peptides (helix 5, 3×D as well as TAT-peptides (see Table 1)) at neutral pH. The total incubation volume was 250 μl (50 mM NaPhosphate buffer, 150 mM NaCl, pH7). ‘High Capacity Streptavidin Beads’ (Thermo Fisher Scientific, Waltham, USA) were blocked with 1% BSA solution and equilibrated with the NaPhosphate buffer. For each pulldown 50 μl of beads were utilized and incubated with 200 μl enzyme/peptide mixture for 30 min. at room temperature. The remaining 50 μl of the enzyme/peptide samples were prepared for SDS-PAGE (INPUT fraction). After incubation of the beads with the enzyme/peptide mixture the samples were centrifuged for 1 min. at 1,500×g at 4° C. The supernatant was removed and stored at 4° C. (UNBOUND fraction). Subsequently, the beads were washed three times with NaPhosphate buffer followed by centrifugation at 4,000 rpm at room temperature. […] The INPUT and BOUND fractions of the pulldown experiments were loaded on a NuPAGE® Novex® 4-12% Bis-Tris gels (Thermo Fisher Scientific, Waltham, USA), subjected to electrophoresis and stained with coomassie (Brilliant Blue, R-250; BioRad). After destaining the gels were scanned.

Biotin-Ttds-KFERQLREIIEAMLKAYQQKLFVTHTVDEYGRKKRRQRRR [helix 5 TAT-peptide]
enhancement of GC activity over the 74 hrs time course (GC in H4 cells): persists | α-synuclein levels [1]: significant reduction | precipitation of recombinant N370S mutant GC [2]: as efficiently as recombinant wild-type GC

From patent publication US10286038B2, “Lysosome membrane protein 2 (LIMP-2) based peptides and related uses” (Northwestern University, priority 2016, dated 2019)
